Data published in a melting point compilation (Tetko et al.; mined from patent text by program, amines drawn as free bases though some values may be those of a salt).
Residues, ends and D or L forms follow the SMILES beside them.

| Structure (SMILES) | melting point |
| --- | --- |
| O=C(CN1C(=O)CC1S(=O)(=O)c1ccccc1)NCCCCCCc1ccc(Cl)cc1 (single isomer, unassigned; (-)) | 106 to 109 °C |
| CC(C)NS(=O)(=O)c1ccc(N)c(C(=O)N2CCN(C)CC2)c1 | 118 to 122 °C |
| CN1CCCc2cc(OC(=O)Nc3ccc(Cl)c(C(F)(F)F)c3)ccc21 | 152 °C |
| COc1ccc(-c2ccc(C)c3occc23)cc1 | 40 to 41 °C |
| CNC1=NS(=O)N=C1NCCSCc1ccc(CN(C)C)s1 (configuration not stated) | 98.5 to 102 °C |
| CC1CN(CCCCC(c2ccc(F)cc2)c2ccc(F)cc2)CCN1CC(=O)Nc1c(Cl)cc(NC(N)=O)cc1Cl (configuration not stated) | 120 °C |
| Clc1ccc(-c2c(Cc3nc4ccccc4o3)cnn2-c2ccccc2)cc1 | 137 to 139 °C |
| CCOc1nn(-c2ccc(C(F)(F)F)cn2)cc1CCCOc1ccc(OC(C)(C)C(=O)O)cc1 | 91 to 92 °C |
| Cc1nnc2cc(C(=O)O)cc(Cl)n12 | 259 to 260 °C |
| O=c1ncc(F)cn1CCO | 134 to 136 °C |
| FC(F)(F)c1cccc(N2CCN(c3ccc(I)nn3)CC2)c1 | 145 °C |
| CCOC(=O)c1cc2c(nc1COc1ccc(C=O)cc1)CCCCC2 | 83 to 84 °C |
| O=C(O)CC[C@@H](Cc1cn(CCCc2ccccc2)c2ccccc12)NC(=O)CCCCCCc1ccccc1 | 100 to 102 °C |
| CC(=O)NC[C@H]1CN(c2ccc(N3CCC(=C(C)C#N)CC3)cc2)C(=O)O1 | 94 to 96 °C |
| Cc1ccc(N2CCN(CCC3NC(=O)c4ccccc43)CC2)cc1C (configuration not stated) | 167 to 169 °C |
| O=C(O)c1ccc(NCC=Cc2ccccc2)cn1 | 178 to 183 °C |
| CN1CCN(CC(=O)N2c3ccccc3C(=O)Nc3cccnc32)CC1 | 198 to 200 °C |
| CSc1cc(C)nc(SC)c1NC(=O)CCCCSc1nc2c(C)c(Cl)cc(C(C)C)c2o1 | 155 to 156 °C |
| CCC1c2nc[nH]c2CCN1C(=O)NC(C)C (configuration not stated) | 170 °C |
| CC(C)(C)c1cnc(C(=O)Nc2cc(-c3cc(NC4CCCNC4)c(=O)[nH]n3)ccc2F)cn1 (configuration not stated) | 140 to 141 °C |
| C1=Nc2cc3c(cc2=C1)N=c1ccccc1=3 | 210 to 211 °C |
| CN(C)CCCc1ccc(C(=O)/C=C/c2ccc(Cl)cc2)cc1 | 83 to 86 °C |
| Nc1ncc(-c2cccc(OCc3ccccc3)c2)cc1C(=O)NC1CC1 | 177 to 178 °C |
| CC(C)(C)n1nc2c(S)ncnc2c1O | > 300 °C |
| COc1cc2nc(N)nc(-c3cccc(Br)c3)c2cc1OC | 246 to 249 °C |
| CCc1ccc(Nc2c(C#N)cnc3cc(OC)c(OC)cc23)cc1 | 248 to 250 °C |

| Structure (SMILES) | melting point |
| --- | --- |
| CNS(=O)(=O)c1ccc(N2CC(CO)OC2=O)cc1 (configuration not stated) | 164 to 166 °C |
| Fc1ccc(N2CC3CCC2CN3Cc2ccccc2)cc1 (configuration not stated) | 74 to 76 °C |
| CN(C)C(=O)n1cc2c(n1)-c1ccc(Cl)cc1C(c1ccccc1Cl)=NC2 | 175 to 176 °C |
| Cc1cc2c(cc1-c1c[nH]c(C=O)c1)C(C)(C)CCC2(C)C | 128 to 129 °C |
| C=CC(c1ccccc1)c1cc(C)c2c(c1O)C(=NO)CC2 (configuration not stated) | 146 °C |
| CC(=O)N[C@@H]1CN2C(=O)N(c3cc(Cl)cc(Cl)c3)C(=O)[C@@]2(Cc2ccc(Br)cc2)C1 | 141 °C |
| O=C1C(=C(O)Cc2ccccc2)SC(=S)N1c1ccccc1 | 146 to 148 °C |
| Cc1ccc(C(=O)C2=C(O)C(=O)N(c3ncc(S(C)(=O)=O)s3)C2c2ccc(C(C)C)cc2)cc1 (configuration not stated) | 269 to 271 °C |
| C[C@H](N)C(=O)N1CCC[C@H]1C(=O)O (H-Ala-Pro-OH) | 106 to 132 °C |
| CNCC1(O)c2ccccc2C=Cc2ccccc21 | 112 to 114 °C |
| CC(C)(C)c1ccc2c(c1)C(C(=O)O)c1ccccc1CO2 (configuration not stated) | 197 to 198 °C |
| C[C@@H]1OC(=O)C2=C[C@H]3CCCC[C@@H]3[C@@H](O)[C@H]21 | 191 to 193 °C |
| Cc1cc(-c2nc3cccnn3c2-c2ccnc(NC(N)=O)c2)ccc1F | 254 to 255 °C |
| Nc1ccc(CN2CCN(c3ccccc3)CC2)cc1 | 105 °C |
| CCOC(=O)C1=C(C)NC(c2cscn2)=NC1c1cccc(C)c1 (configuration not stated) | 133 to 134 °C |
| O=[N+]([O-])c1cccnc1Nc1ccc2c(c1)COC2 | 146 to 147 °C |
| COc1cc(CO)cc(F)n1 | 46 to 49 °C |
| O=c1ccc2c(-c3ccccc3)nccc2[nH]1 | 261 to 263 °C |
| N#Cc1cncc(C=O)c1 | 96 to 98 °C |
| COc1ccc(S(=O)(=O)Nc2ccc(-c3ccccc3)cc2)cc1OC | 171 to 173 °C |
| Nc1ncnc2c1nc(O)n2CCc1ccccc1 | 256 to 258 °C |
| Cc1nc(C)c(CC#N)cc1CC#N | 65 to 67 °C |
| CNC(=O)COc1ccc2c(-c3ccccc3F)noc2c1Cl | 164 °C |
| CC(=O)c1sc(N2CCN(Cc3cccc(C(F)(F)F)c3)C2=O)nc1C | 149 to 151 °C |
| C=CCSc1ccc(-c2ccccc2)nn1 | 96 to 98 °C |
| CSc1ccc2ccc3ccccc3c(=O)c2c1 | 66.5 to 67.5 °C |
